Laboratory results: US20210177879A1, “VITAMIN D RECEPTOR AGONIST” (Guanghzou University of Chinese Medicine, priority 2018, published 2021)

Assays:
[1] = test system: SMB-231 pancreatic cancer cells; test: In vitro proliferation inhibition of SMB-231 pancreatic cancer cells; assay type: cell-based; settings: concentration of 1 uM; compared with blank control group
Description: (§1) The SMB-231 pancreatic cancer cells were thawed, and cultured in a changed medium after 24 hours. Medium preparation method: 6% serum, 1% of a bispecific antibody+a 1640 basal medium. After grown to confluent, the cells were digested and subcultured to expand the number of cells. When reached the required amount, the cells were digested by trypsin, centrifuged, and resuspended in PBS to prepare a cell suspension of 1×10^8 cells/ml. A part of the cell suspension was added with the monotropein, desacetyl asperulosidic acid, asperuloside, and asperulosidic acid respectively, and the inhibition rate (%) of tumor cell proliferation by each of these different compounds was examined.

HT29 colon cancer cells = test: In vitro proliferation inhibition of HT29 colon cancer cells; assay type: cell-based; settings: concentration of 1 uM; compared with blank control group
Description: as §1, with “HT29” for “SMB-231 pancreatic cancer”

[2] = test system: AOM/DSS colon cancer model; test: AOM/DSS colon cancer model, Experiment 2 (colon length, thickness, tumors); assay type: in vivo, Balb/c mice; settings: 2 mg/kg once a day
Description: Experimental method: 70 Balb/c mice of 6-8 weeks were purchased from the Experimental Animal Center in Guangzhou University of Chinese Medicine, weighed about 18-22 g, and subjected to adaptive feeding for 10 days. Modeling was divided into three stages. In the first stage, except for the normal group of animals being given saline injection, each of the other animals were intraperitoneally injected with a carcinogen AOM (10 mg/kg), and given free access to 2% DSS water from the next day for 7 days, and then given access to replaced regular drinking water for 14 days. In the second stage, the animals were given free access to 2% DSS water for 10 days, and then given access to replaced regular drinking water for 14 days. In the third stage, the animals were given free access to 2% DSS water for 10 days, and then given access to replaced regular drinking water for 11 days. The normal group was given access to regular drinking water throughout the experiment. The diet, water drinking and body weights of the animals were recorded daily and DAI scores were made, and the animals were killed and harvested at the 10th week. In this experiment, the animals were divided into groups and administrated on the first day of a modeling period of the second stage, where a total of 7 groups were set, each group including 10 animals. The first group was a blank control group (control) that was given access to drinking water by gavage; the second group was a model group (model), in which a total of 10 animals were given access to drinking water by gavage; the third group was a vitamin D3 positive administration control group (VD3, 0.2 mg/kg); and the fourth to seventh groups were given monotropein, desacetyl asperulosidic acid, asperuloside, and asperulosidic acid (groups labeled as: Mo, As, Aa, Da), respectively at a given dose of 2 mg/kg. Dosing was conducted once a day until the end of the experiment. At the end of the experiment, the animals were anesthetized and harvested, and the colon tissue was taken, measured with a ruler for the length, and measured with a vernier caliper for the thickness. The effects of monotropein, desacetyl asperulosidic acid, asperuloside and asperulosidic acid on expression of the vitamin D receptor were detected.

VDR = test: Detection of acting target of monotropein: VDR expression (Western blot, immunohistochemistry); assay type: in vivo, Balb/c mice
Description: Experimental method: 90 Balb/c mice of 6-8 weeks were purchased from the Experimental Animal Center in Guangzhou University of Chinese Medicine, weighed about 18-22 g, and subjected to adaptive feeding for 10 days. Modeling was divided into three stages. In the first stage, except for the normal group of animals being given saline injection, each of the other animals were intraperitoneally injected with a carcinogen AOM (10 mg/kg), and given free access to 2% DSS water from the next day for 7 days, and then given access to replaced regular drinking water for 14 days. […] The diet, water drinking and body weights of the animals were recorded daily and DAI scores were made, and the animals were killed and harvested at the 10th week. […]
The animals were anesthetized and harvested, and the liver, spleen, thymus and testis were weighed to calculate the organ coefficient; the colon tissue was taken, measured with a ruler for the length, and measured with a vernier caliper for the thickness, and the number and size of tumors and degree of colonic ulceration and adhesion were recorded; respective tissues were cut into small pieces and fixed, and the remaining tissues were frozen and stored; and the fixed tissues were used for HE staining and immunohistochemistry.
(§2) A potential acting target of monotropein for interfering with the colon cancer was detected.

SRC = test: Detection of acting target of monotropein: SRC (Western blot); assay type: in vivo, Balb/c mice; settings: colon of AOM/DSS mice
Description: Experimental method: 90 Balb/c mice of 6-8 weeks were purchased from the Experimental Animal Center in Guangzhou University of Chinese Medicine, weighed about 18-22 g, and subjected to adaptive feeding for 10 days. Modeling was divided into three stages. In the first stage, except for the normal group of animals being given saline injection, each of the other animals were intraperitoneally injected with a carcinogen AOM (10 mg/kg), and given free access to 2% DSS water from the next day for 7 days, and then given access to replaced regular drinking water for 14 days. In the second stage, the animals were given free access to 2% DSS water for 10 days, and then given access to replaced regular drinking water for 14 days. In the third stage, the animals were given free access to 2% DSS water for 10 days, and then given access to replaced regular drinking water for 11 days. The normal group was given access to regular drinking water throughout the experiment. The diet, water drinking and body weights of the animals were recorded daily and DAI scores were made, and the animals were killed and harvested at the 10th week. […]
as §2

SMILES: O=C(O)C1=CO[C@@H](O[C@@H]2O[C@H](CO)[C@@H](O)[C@H](O)[C@H]2O)[C@H]2[C@@H]1C=C[C@]2(O)CO [monotropein]
- proliferation of SMB-231 pancreatic cancer cells in vitro [1]: significantly inhibit the proliferation
- proliferation of HT29 colorectal cancer cells in vitro (HT29 colon cancer cells): significantly inhibit the proliferation
- incidence and development of colorectal cancers [2]: inhibiting the incidence and development of colorectal cancers
- expression of VDR, immunohistochemistry (VDR; colon cancerous sites of AOM/DSS mice): up-regulated the expression of VDR
- expression of intestinal VDR, Western blot (VDR; colon of AOM/DSS mice): mainly promoted the expression of intestinal VDR
- effect on SRC, Western blot (SRC): no significant effect
